Measured values published in patent US8497383B2, “HIV protease inhibitors” (Merck Sharp & Dohme Corp., priority 2009, dated 2013).

Assays:
wild-type HIV-1 protease = target: T1, wild-type HIV-1 protease (Human immunodeficiency virus type 1 group M subtype B, UniProt P04585); assay: Assay for inhibition of microbial expressed HIV protease; assay type: biochemical
T1 construct: the protease (which was expressed in Eschericia coli); made in house; host or cells: Escherichia coli
Experimental: Inhibition studies of the reaction of the protease (which was expressed in Eschericia coli) with a peptide substrate [Val-Ser-Gln-Asn-(betanapthyl)Ala-Pro-Ile-Val] (SEQ ID NO: 1). The inhibitor is first preincubated with the enzyme in assay buffer (50 mM sodium acetate, pH 5.5, 100 mM NaCl, and 0.1% BSA) for 30 minutes at room temperature. Substrate is added to 440 micromolar in a total volume of 80 microliters containing 5 picomolar HIV-1 protease, and the reaction is incubated for 1 hour at 30° C. The reaction is quenched by addition of 120 microliters of 10% phosphoric acid, and product formation is determined after separation of product and substrate on a Vydac C18 column connected to an Alliance high performance liquid chromatography system (Waters Corporation). The extent of inhibition of the reaction is determined from the peak area of the products.

[1] = test system: acute HIV infection of T-lymphoid cells (HIV-1 replication); assay: Assay for inhibition of HIV replication (Spread Assay); assay type: cell-based; conditions: Human immunodeficiency virus 1, T-lymphoid, 10% FBS
Experimental: Assays for the inhibition of acute HIV infection of T-lymphoid cells were conducted in accordance with Vacca, J. P. et al., Proc. Natl. Acad. Sci. USA 1994, 91: 4096.

Row | SMILES | IC50 (wild-type HIV-1 protease) [nM] | IC95 [1] [nM] | inhibition at 0.5 µM ([1]; @ 500 nM, read-out: Spread - inhibition at a fixed concentration) [%]
1 | COC(=O)N[C@H](C(=O)NCCC[C@@H]1CNC[C@H]1N(CCC(C)C)S(=O)(=O)c1ccc(N)cc1)C(c1ccccc1)c1ccccc1 (relative stereo) [Example 12, N-{3-[(3R*,4S*)-4-{[(4-aminophenyl)sulfonyl](3-methylbutyl)amino}pyrrolidin-3-yl]propyl}-Nα-(methoxycarbonyl)-β-phenyl-L-phenylalaninamide] | 0.05 | 324 | 
2 | COC(=O)N[C@H](C(=O)NCCN[C@@H]1CNC[C@H]1N(CCC(C)C)S(=O)(=O)c1ccc(N)cc1)C(c1ccccc1)c1ccccc1 [Example 1, N-(2-{[(3R,4R)-4-{[(4-aminophenyl)sulfonyl](3-methylbutyl)amino}pyrrolidin-3-yl]amino}ethyl)-Nα-(methoxycarbonyl)-β-phenyl-L-phenylalaninamide] | 0.7 | 495 | 
3 | COC(=O)N[C@H](C(=O)N[C@@H](C)CN[C@@H]1CNC[C@H]1N(CCC(C)C)S(=O)(=O)c1ccc(N)cc1)C(c1ccccc1)c1ccccc1 [Example 2, N-[(2S)-1-{[(3R,4R)-4-{[(4-aminophenyl)sulfonyl](3-methylbutyl)amino}pyrrolidin-3-yl]amino}propan-2-yl]-Nα-(methoxycarbonyl)-β-phenyl-L-phenylalaninamide] | 0.055 | 423 | 
4 | CC[C@@H](CN[C@@H]1CNC[C@H]1N(CCC(C)C)S(=O)(=O)c1ccc(N)cc1)NC(=O)[C@@H](NC(=O)OC)C(c1ccccc1)c1ccccc1 [Example 3, N-[(2S)-1-{[(3R,4R)-4-{[(4-aminophenyl)sulfonyl](3-methylbutyl)amino}pyrrolidin-3-yl]amino}butan-2-yl]-Nα-(methoxycarbonyl)-β-phenyl-L-phenylalaninamide] | 0.22 | 472 | 
5 | CCCCC(CN[C@@H]1CNC[C@H]1N(CCC(C)C)S(=O)(=O)c1ccc(N)cc1)NC(=O)[C@@H](NC(=O)OC)C(c1ccccc1)c1ccccc1 (stereo partly drawn) [Example 4, N-(1-{[(3R,4R)-4-{[(4-aminophenyl)sulfonyl](3-methylbutyl)amino}pyrrolidin-3-yl]amino}hexan-2-yl)-Nα-(methoxycarbonyl)-β-phenyl-L-phenylalaninamide] | 3.6 | 399 | 
6 | COC(=O)N[C@H](C(=O)N[C@H](CN[C@@H]1CNC[C@H]1N(CCC(C)C)S(=O)(=O)c1ccc(N)cc1)CC(C)C)C(c1ccccc1)c1ccccc1 [Example 5, N-[(2S)-1-{[(3R,4R)-4-{[(4-aminophenyl)sulfonyl](3-methylbutyl)amino}pyrrolidin-3-yl]amino}-4-methylpentan-2-yl]-Nα-(methoxycarbonyl)-β-phenyl-L-phenylalaninamide] | 3.2 | 405 | 
7 | COC(=O)N[C@H](C(=O)NC(C)(C)CN[C@@H]1CNC[C@H]1N(CCC(C)C)S(=O)(=O)c1ccc(N)cc1)C(c1ccccc1)c1ccccc1 [Example 6, N-(1-{[(3R,4R)-4-{[(4-aminophenyl)sulfonyl](3-methylbutyl)amino}pyrrolidin-3-yl]amino}-2-methylpropan-2-yl)-Nα-(methoxycarbonyl)-β-phenyl-L-phenylalaninamide] | 0.05 | 291 | 
8 | COC(=O)N[C@H](C(=O)NCCN[C@@H]1CNC[C@H]1N(CC(C)C)S(=O)(=O)c1ccc(N)cc1)C(c1ccccc1)c1ccccc1 [Example 7, N-(2-{[(3R,4R)-4-{[(4-aminophenyl)sulfonyl](2-methylpropyl)amino}pyrrolidin-3-yl]amino}ethyl)-Nα-(methoxycarbonyl)-β-phenyl-L-phenylalaninamide] | 3.7 | 500 | 
9 | COC(=O)N[C@H](C(=O)NCCN[C@@H]1CNC[C@H]1N(C(C)C)S(=O)(=O)c1ccc(N)cc1)C(c1ccccc1)c1ccccc1 [Example 8, N-(2-{[(3R,4R)-4-{[(4-aminophenyl)sulfonyl](isopropyl)amino}pyrrolidin-3-yl]amino}ethyl)-Nα-(methoxycarbonyl)-β-phenyl-L-phenylalaninamide] | 22 |  | 26
10 | COC(=O)N[C@H](C(=O)NCCN[C@@H]1CNC[C@H]1N(Cc1ccccc1)S(=O)(=O)c1ccc(N)cc1)C(c1ccccc1)c1ccccc1 [Example 9, N-(2-{[(3R,4R)-4-{[(4-aminophenyl)sulfonyl](benzyl)amino}pyrrolidin-3-yl]amino}ethyl)-Nα-(methoxycarbonyl)-β-phenyl-L-phenylalaninamide] | 8.6 | 505 | 
11 | COC(=O)N[C@H](C(=O)NCCN(C)[C@@H]1CNC[C@H]1N(CCC(C)C)S(=O)(=O)c1ccc(N)cc1)C(c1ccccc1)c1ccccc1 [Example 10, N-{2-[{(3R,4R)-4-[[(4-aminophenyl)sulfonyl](3-methylbutyl)amino]pyrrolidin-3-yl}(methyl)amino]ethyl}-N-alpha-(methoxycarbonyl)-beta-phenyl-L-phenylalaninamide] | 15 | 217 | 
12 | COC(=O)N[C@H](C(=O)NCCN[C@@H]1CNC[C@H]1N(CCC(C)C)S(=O)(=O)c1ccc(CO)cc1)C(c1ccccc1)c1ccccc1 [Example 11, N-[2-({(3R,4R)-4-[{[4-(hydroxymethyl)phenyl]sulfonyl}(3-methylbutyl)amino]pyrrolidin-3-yl}amino)ethyl]-Nalpha-(methoxycarbonyl)-beta-phenyl-L-phenylalaninamide] | 0.29 | 328 | 
